Data set [1] can be described thus: PAMPA, GI-mimicking membrane. It counts as in vitro ADME. Particulars: class relative to high and low permeability controls. How it is done: (§1) The permeability of the synthesised compounds was evaluated using the parallel artificial membrane permeability assay (PAMPA) to estimate their ability to cross biological membrane mimics of both the gastrointestinal (GI) membrane and the blood–brain barrier (BBB).
(§2) The PAMPA assay (BioAssay System, Hayward, CA 94545, USA) has been used for testing the permeability rates of drugs through the BBB-mimicking membrane. […] The permeability assay was performed for 18 h in a 37 °C incubator.

Data set [2] concerns U138-MG glioblastoma cell line. Nature of the data set: MTT cell proliferation assay, U138-MG. It is filed as cell-based. The conditions noted are these: for IC50 / activity at 10 µM / inhibition at 10 µM: Homo sapiens; for IC50 / activity at 10 µM: MTT; for IC50: 0–160 μM; for activity at 10 µM: compound 10 μM, 48 h, read-out: Cell Proliferation ± Std dev. (%) U138; for inhibition at 10 µM: read-out: cell inhibition percentage (activity). How it is done:
(§3) U87-MG (HTB-16) and U138-MG (HTB-14) lines were purchased from ATCC. The cells were cultured in DMEM-HG Medium (41966-029, Gibco, Grand Island, NE, USA) and supplemented with 10% fetal bovine serum (FBS, 10500-064, Gibco) and 1% Penicillin–Streptomycin (P/S, 15140-122, Gibco). After 24 h of seeding cells, all compounds dissolved in 0.4% dimethyl sulfoxide (DMSO, A3672-0250, AppliChem, Darmstadt, Germany) were treated in the cells.
The proliferation effects of the drug candidates on the U87-MG and U138-MG cell lines were tested using the MTT (3-(4,5-dimethylthiazol-2-yl)-2,5-diphenyltetrazolium bromide) assay. A total of 7 × 10^3 cells per well of both U87-MG and U138-MG cells were seeded into a 96-well plate in triplicate for the assay. […] After the incubation period, 10 μL of MTT solution (5 mg/mL in PBS) was added to each well. The MTT solution was aspirated from the wells after 2 h. Then, 100 μL of DMSO was added and mixed to dissolve the formazan crystals. Cell proliferation was analysed by measuring the absorbance of the dissolved formazan at a wavelength of 570 nm using a microplate reader (Epoch, San Jose, CA, USA). […] Each experiment was carried out in triplicate to ensure reliability and statistical significance.
A general note: Formazan colour is commonly taken as a measure of viable cells.

Data set [3] has as its system U87-MG glioblastoma cell line. Nature of the data set: MTT cell proliferation assay, U87-MG. It counts as cell-based. Particulars: for activity at 10 µM: compound 10 μM, 48 h, read-out: Cell Proliferation ± Std dev. (%) U87; for IC50: 0–160 μM. How it is done: as §3
The proliferation effects of the drug candidates on the U87-MG and U138-MG cell lines were tested using the MTT (3-(4,5-dimethylthiazol-2-yl)-2,5-diphenyltetrazolium bromide) assay. A total of 7 × 10^3 cells per well of both U87-MG and U138-MG cells were seeded into a 96-well plate in triplicate for the assay. After 24 h, each compound was added at a dose of 10 μM and incubated for 48 h. After the incubation period, 10 μL of MTT solution (5 mg/mL in PBS) was added to each well. The MTT solution was aspirated from the wells after 2 h. Then, 100 μL of DMSO was added and mixed to dissolve the formazan crystals. Cell proliferation was analysed by measuring the absorbance of the dissolved formazan at a wavelength of 570 nm using a microplate reader (Epoch, San Jose, CA, USA). […] Each experiment was carried out in triplicate to ensure reliability and statistical significance.

Data set [4] in a line: PAMPA, BBB-mimicking membrane. The conditions noted are these: 500 μM, 18 h, 37 °C. It counts as in vitro ADME. How it is done: as §1, §2
Background: In PAMPA a lipid-coated filter parts donor from acceptor wells.

[5] abbreviates: equals 100 minus cell proliferation of Table 1 (10 μM, 48 h).

Regarding `O=C(COc1ccc2c(c1)CCC(=O)N2)N/N=C/c1ccc(F)cc1` [4s, (E)-N′-(4-Fluorobenzylidene)-2-((2-Oxo-1,2,3,4-Tetrahydroquinolin-6-Yl)Oxy)Acetohydrazide], the “Permeability through GI-mimicking membrane (class in words)” value in data set [1] is “high permeability”.
The compound `Cc1[nH]c2ccccc2c1/C=N/NC(=O)COc1ccc2c(c1)CCC(=O)N2` [4g, (E)-N′-((2-Methyl-1H-Indol-3-Yl)Methylene)-2-((2-Oxo-1,2,3,4-Tetrahydroquinolin-6-Yl)Oxy)Acetohydrazide] displayed an IC50 in data set [2] of 9.2 µM.
`CN1C(=O)/C(=N\NC(=O)COc2ccc3c(c2)CCC(=O)N3)c2cc(F)ccc21` [4l, (Z)-N′-(5-Fluoro-1-Methyl-2-Oxoindolin-3-Ylidene)-2-((2-Oxo-1,2,3,4-Tetrahydroquinolin-6-Yl)Oxy)Acetohydrazide]: the activity at 10 µM in data set [2] was determined as 73 ± 3.6%.
Turning to `O=C(COc1ccc2c(c1)CCC(=O)N2)N/N=C/c1cnc(-c2ccc(Cl)cc2)nc1` [4q, (E)-N′-((2-(4-Chlorophenyl)Pyrimidin-5-Yl)Methylene)-2-((2-Oxo-1,2,3,4-Tetrahydroquinolin-6-Yl)Oxy)Acetohydrazide], in data set [3] (Homo sapiens, U-87 MG), the activity at 10 µM stood at 67 ± 4.9%. Also, in data set [2], the IC50 amounted to 8 µM and the activity at 10 µM was 39 ± 3%. Also, in data set [2] (setting [5]), the inhibition at 10 µM was 61%.
Turning to `O=C(COc1ccc2c(c1)CCC(=O)N2)NN=Cc1cccs1` [4d, 2-((2-Oxo-1,2,3,4-Tetrahydroquinolin-6-Yl)Oxy)-N′-(Thiophen-2-Ylmethylene)Acetohydrazide], in data set [1], the “Permeability through GI-mimicking membrane (class in words)” value was “high permeability”.
With `O=C(COc1ccc2c(c1)CCC(=O)N2)N/N=C/c1ccc(-c2ccccc2)cc1` [4v, (E)-N′-([1,1′-Biphenyl]-4-Ylmethylene)-2-((2-Oxo-1,2,3,4-Tetrahydroquinolin-6-Yl)Oxy)Acetohydrazide], the IC50 in data set [3] (Homo sapiens, U-87 MG) is 11.7 µM.
As to `O=C(COc1ccc2c(c1)CCC(=O)N2)N/N=C1\C(=O)Nc2ccc([N+](=O)[O-])cc21` [4o, (Z)-N′-(5-Nitro-2-Oxoindolin-3-Ylidene)-2-((2-Oxo-1,2,3,4-Tetrahydroquinolin-6-Yl)Oxy)Acetohydrazide], the “cell inhibition percentage (activity)” value in data set [2] (setting [5]) is reported as “moderate activity”.
Turning to `O=C(COc1ccc2c(c1)CCC(=O)N2)N/N=C1\C(=O)Nc2ccc(F)cc21` [4m, (Z)-N′-(5-Fluoro-2-Oxoindolin-3-Ylidene)-2-((2-Oxo-1,2,3,4-Tetrahydroquinolin-6-Yl)Oxy)Acetohydrazide], the IC50 in data set [2] is 4.2 µM.
`O=C(COc1ccc2c(c1)CCC(=O)N2)N/N=C/c1ccccc1` [4j, (E)-N′-Benzylidene-2-((2-Oxo-1,2,3,4-Tetrahydroquinolin-6-Yl)Oxy)Acetohydrazide]: the “Permeability through BBB-mimicking membrane (class in words)” value in data set [4] was “high permeability”.
Consider `O=C(COc1ccc2c(c1)CCC(=O)N2)N/N=C/c1cccc(Oc2ccc(Cl)cc2)c1` [4t, (E)-N′-(3-(4-Chlorophenoxy)Benzylidene)-2-((2-Oxo-1,2,3,4-Tetrahydroquinolin-6-Yl)Oxy)Acetohydrazide], for which the IC50 in data set [3] was 10.5 µM; in data set [3] (Homo sapiens, U-87 MG), 10.7 µM. Also, the activity at 10 µM in data set [3] (Homo sapiens, U-87 MG) amounted to 50 ± 3.2%; in data set [2], 65 ± 3.5%. In addition, the “Permeability through BBB-mimicking membrane (class in words)” value in data set [4] is listed as “high permeability”.
`O=C(COc1ccc2c(c1)CCC(=O)N2)N/N=C/c1cccc2ccccc12` [4u, (E)-N′-(Naphthalen-1-Ylmethylene)-2-((2-Oxo-1,2,3,4-Tetrahydroquinolin-6-Yl)Oxy)Acetohydrazide] showed an IC50 in data set [3] (Homo sapiens, U-87 MG) of 7.96 µM.
Regarding `Cn1nnc2c(C(N)=O)ncn2c1=O` [TMZ, temozolomide, reference compound], in data set [3] (Homo sapiens, U-87 MG), the midpoint of inhibition, the IC50, lay at 92.9 µM and the activity at 10 µM was determined as 80 ± 5%. Besides, in data set [2], the midpoint of inhibition, the IC50, lay at 93.1 µM and the activity at 10 µM was 78 ± 5%. Besides, the “Permeability through BBB-mimicking membrane (class in words)” value in data set [4] is recorded as “lower permeability”. Further, the “Permeability through GI-mimicking membrane (class in words)” value in data set [1] is “lower permeability”.
Regarding `O=C(COc1ccc2c(c1)CCC(=O)N2)N/N=C/c1ccc(Cl)cc1` [4b, (E)-N′-(4-Chlorobenzylidene)-2-((2-Oxo-1,2,3,4-Tetrahydroquinolin-6-Yl) Oxy) Acetohydrazide], the inhibition at 10 µM in data set [2] (setting [5]) was determined as 40%.
With `CCCc1ccc(/C=N/NC(=O)COc2ccc3c(c2)CCC(=O)N3)cc1` [4h, (E)-2-((2-Oxo-1,2,3,4-Tetrahydroquinolin-6-Yl)Oxy)-N′-(4-Propylbenzylidene)Acetohydrazide], the activity at 10 µM in data set [2] is 100 ± 2.3%. Besides, the inhibition at 10 µM in data set [2] (setting [5]) was 0%. The “Permeability through BBB-mimicking membrane (class in words)” value in data set [4] is “high permeability”.
With `O=C(COc1ccc2c(c1)CCC(=O)N2)N/N=C/c1ccc(-c2ccc(Cl)cc2)cc1` [4w, (E)-N′-((4′-Chloro-[1,1′-Biphenyl]-4-Yl)Methylene)-2-((2-Oxo-1,2,3,4-Tetrahydroquinolin-6-Yl)Oxy)Acetohydrazide], the activity at 10 µM in data set [3] (Homo sapiens, U-87 MG) stood at 63 ± 2.5%; in data set [2], 80 ± 6.9%. Moreover, the inhibition at 10 µM in data set [2] (setting [5]) came out at 20%.

By IC50 is commonly meant the concentration that inhibits the measured activity by half. The low end stands for inhibition by little substance, the high end for a need for much substance. By inhibition is commonly meant the percentage by which the read-out fell short of the control.

The record behind these values is PMC11859309, “Design, Synthesis, and Computational Evaluation of 3,4-Dihydroquinolin-2(1H)-One Analogues as Potential VEGFR2 Inhibitors in Glioblastoma Multiforme” (Pharmaceuticals, 2025).
